Tests used:
HCT116 cancer cells = assay: pH-dependent cellular uptake (flow cytometry, fluorescence imaging); assay type: cell-based, human; settings: HCT116, pH 6.8 vs pH 7.4
Experimental: HCT116 cells were exposed to PMNs, InS-NPs and Ce6 at different pHs to verify their cellular uptake respectively. The cells were incubated for 2 h, washed, harvested, and re-suspended with DPBS. In vitro cellular uptake was quantified using a flow cytometer (Beckman, San Jose, Calif., USA). For each sample 10,000 cells (gated events) were counted, and free Ce6 fluorescence was detected with logarithmic settings (FL4; λem=670 nm). Cells were counted as positive if their fluorescence (FL4) was higher than that of cells from an untreated cell suspension. Each experiment was analyzed statistically using the CXP Analysis Program.
The tumor cellular uptake of PMNs was monitored at different pH conditions (pH 7.4 and 6.8) using a KODAK In vivo Image Station (Image Station 4000 MM; Kodak, New Haven, Conn., USA) and a flow cytometer (Beckman, San Jose, Calif., USA). HCT116 cells (1×10^5 cells/mL) were incubated with each sample for 2 h in RPMI-1640 medium (pH 7.4 or 6.8, with 1% penicillin-streptomycin) at 37° C. and then analyzed. To ameliorate photobleaching during microscope observation, a drop of anti-fade mounting solution (5% N-propyl gallate, 47.5% glycerol, and 47.5% Tris-HCl, pH 8.4) was added to the cells.

[1] = test system: heterogeneous CT26 tumors; assay: In vivo PDT in heterogeneous drug-resistant CT26 tumors; set-up: species or system BALB/c nude mice; settings: heterogeneous CT26 tumors after PDT
Experimental: For histology analysis, tumor tissues from control and treated mice were fixed in 10% neutral buffered formalin and frozen sectioned into 5 micron thick slices, stained with hematoxylin & eosin (H&E) and terminal deoxynucleotidyl transferase dUTP nick-end labeling (TUNEL), and were examined by a digital microscope (Leica QWin) and a confocal laser scanning microscope (LSM 510 Meta; Zeiss, Germany).
For in vitro PDT, HCT116 cells (5×10^4/well) were incubated with the materials described above. Photosensitization experiments were then performed by irradiating the cells with a 670-nm laser source (Institute of Electronics) for 2 min. The power at the level of the cells was fixed at 5 mW/cm^2. Cell viability was assessed using the MTT assay. Absorbance intensity was measured at 595 nm using a microplate reader (Bio-Tek, VT, USA). A parallel set of control cells was also used in which cells incubated with the respective materials were not exposed to laser irradiation. […] The tumor size was measured 3 times a week after the first PDT treatment by using a Vernier caliper, and tumor volumes were calculated from width (a) and length (b) measurements (V=a^2×b/2, where a≦b). All mice were killed when the tumor measured 1,000 mm^3, at the first sign of suffering, or between 15 and 21 day post-transplantation.

Q: With chlorin E6 [Ce6] as the substance, how does the “cellular uptake, pH dependence” value (HCT116 cancer cells) read?
A: The value was “not affected by changes in pH”.

Q: And the “damage to tumor tissue cells, microvasculature and fibroblasts (H&E, TUNEL)” value [1]?
A: Its value is “no obvious damage”.

Reference: patent publication US9827313B2, “Self-assembled pharmaceutical composition for photodynamic therapy” (SNU R&DB FOUNDATION, priority 2014, dated 2017)
